According to patent publication US10364245B2 (CHIESI FARMACEUTICI S.p.A., priority 2017, dated 2019):

What was measured:
[1] = biological target: T1, p38 alpha (Homo sapiens, UniProt Q16539); assay: P38 alpha enzyme inhibition assay (Alphascreen kinase activity assay); format: biochemical; conditions: 100 pM p38 alpha, 2 hours preincubation at 25° C., 250 μM ATP, ATF-2 fusion protein; read-out: p38α inhibition
T1 construct: purchased Invitrogen PV3304
Protocol: P38 Alpha Enzyme Inhibition Assay
The inhibitory activity of compounds was determined using an Alphascreen® (Perkin Elmer) based kinase activity assay. Kinase reactions consisted of 25 mM HEPES pH 7.5, 10 mM MgCl2, 100 μM Na3VO4, 2 mM DTT, 0.05 mg/ml Tween 20, 100 pM p38 alpha (Invitrogen, PV3304), 1% DMSO and 0.3 μg/ml ATF-2 fusion protein (New England Biolabs, 9224). Compounds were incubated under these conditions for 2 hours, at 25° C., prior to the initiation of the kinase activity by the addition of the 250 μM ATP. Reaction volumes were 20 μL. After 1 hr at 25° C. reactions were stopped by the adding 10 μL of 25 mM HEPES pH 7.5 containing 62.5 mM EDTA, 0.05% Triton X-100, 10% BSA and 0.83 ng/uL anti-phospho-ATF2 antibody (Abcam, ab28812). Detection was performed by measuring luminescence following the addition of Alphascreen Donor beads (Perkin Elmer 6765300) and Protein A Alphascreen Acceptor beads (Perkin Elmer 6760137), both at a final concentration of 20 ug/ml. IC50 values were determined from concentration-response curves.

[2] = tested on: Peripheral Blood Mononuclear Cells (PBMCs), TNFα release; assay: LPS-stimulated PBMC TNFα release assay; format: cell-based; conditions: human PBMC, LPS (10 ng/ml), 18 h, compound 1 h before LPS; read-out: LPS-stimulated PBMC TNFα release inhibition
Protocol: LPS-Stimulated PBMC TNFα Release Assay
Peripheral Blood Mononuclear Cells (PBMCs) were isolated from healthy human volunteer blood using a standard density gradient centrifugation technique. Citrated blood was placed onto Histopaque™ and centrifuged. The PBMCs were removed from the density gradient interface and washed in phosphate buffered saline (PBS). The PBMCs were suspended in RPMI 1640 medium (without serum), dispensed into a 96-well plate and incubated at 37° C. for 3 h in a humidified incubator. After incubation, the medium was replaced (with medium containing 1% foetal bovine serum) and the plate incubated at 37° C., for 1 h, in the presence of test compound or the appropriate vehicle. LPS (10 ng/ml), or an appropriate vehicle control, was then added to the cells and the plate returned to the incubator for 18 h. Cell-free supernatants were removed and assayed for TNFα levels using MSD plates on the Sector Imager 6000 (MesoScale).
A dose response curve to each test compound was performed and the effect of compound in each experiment was expressed as a percentage inhibition of the control TNFα release. Dose response curves were plotted and compound potency (IC50) was determined. Compounds were tested in at least three separate experiments.

T1 sequence (Q16539 whole entry, the tested form may be a part): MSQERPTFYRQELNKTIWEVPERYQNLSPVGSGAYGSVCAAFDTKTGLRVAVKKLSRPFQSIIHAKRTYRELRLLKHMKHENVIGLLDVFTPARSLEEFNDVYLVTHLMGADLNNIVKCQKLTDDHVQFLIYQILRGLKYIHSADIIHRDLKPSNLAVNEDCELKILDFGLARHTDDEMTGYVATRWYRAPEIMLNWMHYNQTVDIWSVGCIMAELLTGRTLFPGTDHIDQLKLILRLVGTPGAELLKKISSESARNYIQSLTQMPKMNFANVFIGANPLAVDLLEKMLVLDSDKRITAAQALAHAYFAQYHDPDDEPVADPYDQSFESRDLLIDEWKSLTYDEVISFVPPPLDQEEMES

Compound | IC50 [1] | IC50 [2]
CN1CCN(C(C)(C)c2nnc3ccc(O[C@@H]4CC[C@H](NC(=O)Nc5cc(CO)nc(C(C)(C)C)c5)c5ccccc54)cn23)CC1 [Example 198, 1-(2-(tert-butyl)-6-(hydroxymethyl)pyridin-4-yl)-3-((1S,4R)-4-((3-(2-(4-methylpiperazin-1-yl)propan-2-yl)-[1,2,4]triazolo[4,3-a]pyridin-6-yl)oxy)-1,2,3,4-tetrahydronaphthalen-1-yl)urea] | < 1 nM | > 5 nM
COCCN(CCOC)Cc1nc(NC(=O)N[C@H]2CC[C@@H](Oc3ccc4nnc(C(C)(C)C)n4c3)c3ccccc32)cc(C(C)(C)C)n1 [Example 86, 1-(2-((bis(2-methoxyethyl)amino)methyl)-6-(tert-butyl)pyrimidin-4-yl)-3-((1S,4R)-4-((3-(tert-butyl)-[1,2,4]triazolo[4,3-a]pyridin-6-yl)oxy)-1,2,3,4-tetrahydronaphthalen-1-yl)urea] | 1 to 10 nM | > 5 nM
CCC(CC)c1nnc2ccc(O[C@@H]3CC[C@H](NC(=O)Nc4cc(C(C)(C)C)nc(C(=O)NCCN(C)C)n4)c4ccccc43)cn12 [Example 5, 4-(tert-Butyl)-N-(2-(dimethylamino)ethyl)-6-(3-((1S,4R)-4-((3-(pentan-3-yl)-[1,2,4]triazolo[4,3-a]pyridin-6-yl)oxy)-1,2,3,4-tetrahydronaphthalen-1-yl)ureido)pyrimidine-2-carboxamide] | < 1 nM | 1 to 5 nM
COCCN(CCNC(=O)c1nc(NC(=O)N[C@H]2CC[C@@H](Oc3ccc4nnc(C(C)(C)C)n4c3)c3ccccc32)cc(C(C)(C)C)n1)CCOC [Example 92, N-(2-(bis(2-methoxyethyl)amino)-ethyl)-4-(tert-butyl)-6-(3-((1S,4R)-4-((3-(tert-butyl)-[1,2,4]triazolo[4,3-a]pyridin-6-yl)oxy)-1,2,3,4-tetrahydronaphthalen-1-yl)ureido)pyrimidine-2-carboxamide] | 1 to 10 nM | > 5 nM
COC(C)(C)c1nnc2ccc(O[C@@H]3CC[C@H](NC(=O)Nc4cc(COCCN5CCOCC5)nc(C(C)(C)C)c4)c4ccccc43)cn12 [Example 57] | 1 to 10 nM | > 5 nM
CN(C)CCNC(=O)c1nc(NC(=O)N[C@H]2CC[C@@H](Oc3ccc4nnc([C@]5(C)CCCN5C)n4c3)c3ccccc32)cc(C(C)(C)C)n1 [Example 28, 4-(tert-Butyl)-N-(2-(dimethylamino)ethyl)-6-(3-((1S,4R)-4-((3-((S)-1,2-dimethylpyrrolidin-2-yl)-[1,2,4]triazolo[4,3-a]pyridin-6-yl)oxy)-1,2,3,4-tetrahydronaphthalen-1-yl)ureido)pyrimidine-2-carboxamide] | < 1 nM | 1 to 5 nM
CN1CCC[C@@]1(C)c1nnc2ccc(O[C@@H]3CC[C@H](NC(=O)Nc4cc(C(C)(C)C)ccn4)c4ccccc43)cn12 [Example 44, 1-(4-(tert-Butyl)pyridin-2-yl)-3-((1S,4R)-4-((3-((S)-1,2-dimethylpyrrolidin-2-yl)-[1,2,4]triazolo[4,3-a]pyridin-6-yl)oxy)-1,2,3,4-tetrahydronaphthalen-1-yl)urea] | < 1 nM | 1 to 5 nM
COCCN(C)CCNC(=O)c1nc(NC(=O)N[C@H]2CC[C@@H](Oc3ccc4nnc(C5(C)CC5)n4c3)c3ccccc32)cc(C(C)(C)C)n1 [Example 137, 4-(tert-butyl)-N-(2-((2-methoxyethyl)(methyl)-amino)ethyl)-6-(3-((1S,4R)-4-((3-(1-methylcyclopropyl)-[1,2,4]triazolo[4,3-a]pyridin-6-yl)oxy)-1,2,3,4-tetrahydronaphthalen-1-yl)ureido)pyrimidine-2-carboxamide] | 1 to 10 nM | > 5 nM
COC(C)(C)c1nnc2ccc(O[C@@H]3CC[C@H](NC(=O)Nc4cc(C(C)(C)C)nc(C(=O)NCCN5CCOCC5)n4)c4ccccc43)cn12 [Example 95, 4-(tert-butyl)-6-(3-((1S,4R)-4-((3-(2-methoxypropan-2-yl)-[1,2,4]triazolo[4,3-a]pyridin-6-yl)oxy)-1,2,3,4-tetrahydronaphthalen-1-yl)ureido)-N-(2-morpholinoethyl)-pyrimidine-2-carboxamide] | 1 to 10 nM | > 5 nM
CC(C)(C)c1cc(NC(=O)N[C@H]2CC[C@@H](Oc3ccc4nnc(C(C)(C)C)n4c3)c3ccccc32)nc(CN2CCOCC2)n1 [Example 21, 1-(6-(tert-Butyl)-2-(morpholinomethyl)pyrimidin-4-yl)-3-((1S,4R)-4-((3-(tert-butyl)-[1,2,4]triazolo[4,3-a]pyridin-6-yl)oxy)-1,2,3,4-tetrahydronaphthalen-1-yl)urea] | 1 to 10 nM | > 5 nM
CCN(CC)c1nnc2ccc(O[C@@H]3CC[C@H](NC(=O)Nc4cc(C(=O)NCCN(C)C)nc(C(C)(C)C)c4)c4ccccc43)cn12 [Example 10, 6-(tert-Butyl)-4-(3-((1S,4R)-4-((3-(diethylamino)-[1,2,4]triazolo[4,3-a]pyridin-6-yl)oxy)-1,2,3,4-tetrahydronaphthalen-1-yl)ureido)-N-(2-(dimethylamino)ethyl)picolinamide] | < 1 nM | 1 to 5 nM
COCC(C)(C)c1nnc2ccc(O[C@@H]3CC[C@H](NC(=O)Nc4cc(C(C)(C)C)nc(C(=O)NCCN5CC(OC)C5)n4)c4ccccc43)cn12 [Example 166, 4-(tert-butyl)-6-(3-((1S,4R)-4-((3-(1-methoxy-2-methylpropan-2-yl)-[1,2,4]triazolo[4,3-a]pyridin-6-yl)oxy)-1,2,3,4-tetrahydronaphthalen-1-yl)ureido)-N-(2-(3-methoxyazetidin-1-yl)ethyl)pyrimidine-2-] | < 1 nM | > 5 nM
CN(CCO)CCNC(=O)c1nc(NC(=O)N[C@H]2CC[C@@H](Oc3ccc4nnc(C(C)(C)C)n4c3)c3ccccc32)cc(C(C)(C)C)n1 [Example 77, 4-(tert-butyl)-6-(3-((1S,4R)-4-((3-(tert-butyl)-[1,2,4]triazolo[4,3-a]pyridin-6-yl)oxy)-1,2,3,4-tetrahydronaphthalen-1-yl)ureido)-N-(2-((2-hydroxyethyl)(methyl)-amino)ethyl)pyrimidine-2-carboxamide] | < 1 nM | 1 to 5 nM
CC(C)(C)Cc1nnc2ccc(O[C@@H]3CC[C@H](NC(=O)Nc4cc(C(C)(C)C)nc(C(=O)NCCN5CCOCC5)n4)c4ccccc43)cn12 [Example 99, 4-(tert-butyl)-N-(2-morpholinoethyl)-6-(3-((1S,4R)-4-((3-neopentyl-[1,2,4]triazolo[4,3-a]pyridin-6-yl)oxy)-1,2,3,4-tetrahydronaphthalen-1-yl)ureido)pyrimidine-2-carboxamide] | 1 to 10 nM | > 5 nM
CN(C)CCOCCNC(=O)c1nc(NC(=O)N[C@H]2CC[C@@H](Oc3ccc4nnc(C(C)(C)C)n4c3)c3ccccc32)cc(C(C)(C)C)n1 [Example 130, 4-(tert-butyl)-6-(3-((1S,4R)-4-((3-(tert-butyl)-[1,2,4]triazolo[4,3-a]pyridin-6-yl)oxy)-1,2,3,4-tetrahydronaphthalen-1-yl)ureido)-N-(2-(2-(dimethylamino)ethoxy)-ethyl)pyrimidine-2-carboxamide] | < 1 nM | > 5 nM
CN1CCN(c2nc(NC(=O)N[C@H]3CC[C@@H](Oc4ccc5nnc([C@]6(C)CCCN6C)n5c4)c4ccccc43)cc(C(C)(C)C)n2)CC1 [Example 31, 1-(6-(tert-Butyl)-2-(4-methylpiperazin-1-yl)pyrimidin-4-yl)-3-((1S,4R)-4-((3-((S)-1,2-dimethylpyrrolidin-2-yl)-[1,2,4]triazolo[4,3-a]pyridin-6-yl)oxy)-1,2,3,4-tetrahydronaphthalen-1-yl)urea] |  | > 5 nM
COC(C)(C)c1nnc2ccc(O[C@@H]3CC[C@H](NC(=O)Nc4cc(C(=O)NCCN(C)C)nc(C(C)(C)C)c4)c4ccccc43)cn12 [Example 185, 6-(tert-butyl)-N-(2-(dimethylamino)ethyl)-4-(3-((1S,4R)-4-((3-(2-methoxypropan-2-yl)-[1,2,4]triazolo[4,3-a]pyridin-6-yl)oxy)-1,2,3,4-tetrahydronaphthalen-1-yl)ureido)picolinamide] | 1 to 10 nM | 
COC1CN(C(C)(C)CNC(=O)c2nc(NC(=O)N[C@H]3CC[C@@H](Oc4ccc5nnc(C(C)(C)C)n5c4)c4ccccc43)cc(C(C)(C)C)n2)C1 [Example 170, 4-(tert-butyl)-6-(3-((1S,4R)-4-((3-(tert-butyl)-[1,2,4]triazolo[4,3-a]pyridin-6-yl)oxy)-1,2,3,4-tetrahydronaphthalen-1-yl)ureido)-N-(2-(3-methoxyazetidin-1-yl)-2-methylpropyl)pyrimidine-2-carboxamide] | 1 to 10 nM | 
